≈ marks a conversion by molar mass, not a printed value. Where two headings read alike, the source gives them in different places.
Assays:
Assay type in all cases: cell-based
[1] = tested on: Escherichia Coli UC 1 020; assay: MIC, dilution method in liquid media, Escherichia Coli UC 1 020; conditions: read-out: MIC
Method: (§1) A series of tubes were prepared with the same quantity of sterile nutrive media and increasing quantities of the test product was distributed to each tube. Then, each tube was seeded with a bacterial strain and after incubation at 37° C for 24 or 48 hours, the inhibition of the growth was determined by transillumination which permitted determination of the minimum inhibitory concentrations (M.I.C.) in μg/ml.

[2] = tested on: Staphylococcus aureus UC 1128 (penicillin resistant); assay: MIC, dilution method in liquid media, Staphylococcus aureus UC 1128, penicillin resistant
Method: as §1

[3] = tested on: Streptococcus pyogenes A 561; assay: MIC, dilution method in liquid media, Streptococcus pyogenes A 561
Method: as §1

[4] = tested on: Escherichia Coli UC 1 261; assay: MIC, dilution method in liquid media, Escherichia Coli UC 1 261; conditions: read-out: MIC
Method: as §1

[5] = tested on: Staphylococcus aureus 54 146; assay: MIC, dilution method in liquid media, Staphylococcus aureus 54 146
Method: as §1

[6] = tested on: Escherichia Coli R 55 123 D; assay: MIC, dilution method in liquid media, Escherichia Coli R 55 123 D; conditions: COLIR55123D, read-out: MIC
Method: as §1

[7] = tested on: Proteus mirabilis (indol); assay: MIC, dilution method in liquid media, Proteus mirabilis (indol)
Method: as §1

[8] = tested on: Klebsiella pneumoniae 52 145; assay: MIC, dilution method in liquid media, Klebsiella pneumoniae 52 145
Method: as §1

[9] = tested on: Streptococcus faecalis 5 432; assay: MIC, dilution method in liquid media, Streptococcus faecalis 5 432; conditions: read-out: MIC
Method: as §1

[10] = tested on: Bacillus subtilis ATCC 6 633; assay: MIC, dilution method in liquid media, Bacillus subtilis ATCC 6 633
Method: as §1

[11] = tested on: Staphylococcus aureus ATCC 6 538; assay: MIC, dilution method in liquid media, Staphylococcus aureus ATCC 6 538
Method: as §1

Salmonella Typhimurium = assay: MIC, dilution method in liquid media, Salmonella Typhimurium; conditions: Salmonella enterica, strain 420 (Tables II, IV)
Method: as §1

[12] = tested on: Staphylococcus aureus UC 1 061 (penicillin sensible); assay: MIC, dilution method in liquid media, Staphylococcus aureus UC 1061, penicillin sensible; conditions: penicillin sensible
Method: as §1

[13] = tested on: Escherichia Coli (T) 0 26 B 6; assay: MIC, dilution method in liquid media, Escherichia Coli (T) 026 B6
Method: as §1

[14] = tested on: Streptococcus faecalis 99 F 74; assay: MIC, dilution method in liquid media, Streptococcus faecalis 99 F 74; conditions: Enterococcus faecalis
Method: as §1

Serratia RG 2 532 = assay: MIC, dilution method in liquid media, Serratia RG 2 532
Method: as §1

[15] = Staphylococcus aureus, 54146, 24 h, read-out: MIC

| SMILES | MIC ([1]; UC1, 24 h) | MIC ([1]; UC1, 48 h) | MIC ([2]; UC1128, 24 H) | MIC ([2]; UC1128, 48 H) | MIC ([3]; A561, 24 h) | MIC ([3]; A561, 48 h) | MIC ([4]; UC1, 24 h) | MIC ([4]; UC1, 48 h) | MIC [5, 15] | MIC ([7]; 24 H, A 235, read-out: MIC) | MIC ([10]; ATCC6, 24 h) | MIC ([10]; ATCC6, 48 h) | MIC ([11]; ATCC6, 24 h, read-out: MIC) | MIC (Salmonella Typhimurium; 24 H) | MIC ([12]; UC1, 24 H) | MIC ([12]; UC1, 48 H) | MIC ([13]; 24 h) | MIC ([13]; 48 h) | also measured |
| --- | --- | --- | --- | --- | --- | --- | --- | --- | --- | --- | --- | --- | --- | --- | --- | --- | --- | --- | --- |
| Nc1nc(CC(=O)NC2C(=O)N3C(C(=O)O)=C(CSC(=O)c4ccco4)CS[C@H]23)cs1 (stereo partly shown) [Example 5, 7-[2-(2-amino-4-thiazolyl)-acetamido]-3-[{(2-furyl)-carbonyl}thiomethyl]-ceph-3-eme-4-carboxylic acid] | 10 µg/mL (≈ 20.8 µM) | 10 µg/mL (≈ 20.8 µM) | 1 µg/mL (≈ 2.08 µM) | 2 µg/mL (≈ 4.16 µM) | 0.1 µg/mL (≈ 0.208 µM) | 0.1 µg/mL (≈ 0.208 µM) | 2 µg/mL (≈ 4.16 µM) | 2 µg/mL (≈ 4.16 µM) | 1 µg/mL (≈ 2.08 µM) | 2 µg/mL (≈ 4.16 µM) | 0.2 µg/mL (≈ 0.416 µM) | 0.2 µg/mL (≈ 0.416 µM) | 0.5 µg/mL (≈ 1.04 µM) | 10 µg/mL (≈ 20.8 µM) | 0.5 µg/mL (≈ 1.04 µM) | 1 µg/mL (≈ 2.08 µM) | 10 µg/mL (≈ 20.8 µM) | 10 µg/mL (≈ 20.8 µM) | MIC ([5]; Staphylococcus aureus, 54146, 48 h, read-out: MIC): 1 µg/mL (≈ 2.08 µM); MIC ([6]; 24 h): 10 µg/mL (≈ 20.8 µM); MIC ([6]; 48 h): 10 µg/mL (≈ 20.8 µM); MIC ([7]; 48 H, A 235, read-out: MIC): 2 µg/mL (≈ 4.16 µM); MIC ([8]; Klebsiella pneumoniae, 52145, 24 h): 0.4 µg/mL (≈ 0.832 µM); MIC ([8]; Klebsiella pneumoniae, 52145, 48 h, read-out: MIC): 1 µg/mL (≈ 2.08 µM); MIC ([9]; Enterococcus faecalis, 5432, 24 h): 5 µg/mL (≈ 10.4 µM); MIC ([9]; Enterococcus faecalis, 5432, 48 h): 40 µg/mL (≈ 83.2 µM); MIC ([11]; ATCC6, 48 h, read-out: MIC): 1 µg/mL (≈ 2.08 µM) |
| CCC(=O)SCC1=C(C(=O)O)N2C(=O)C(NC(=O)Cc3csc(N)n3)[C@H]2SC1 (stereo partly shown) [Example 6, 7-[2-(2-amino-4-thiazolyl)-acetamido]-3-propionylthiomethyl-ceph-3-eme-4-carboxylic acid] | 10 µg/mL (≈ 22.6 µM) | 10 µg/mL (≈ 22.6 µM) | 1 µg/mL (≈ 2.26 µM) | 1 µg/mL (≈ 2.26 µM) | 0.2 µg/mL (≈ 0.452 µM) | 0.2 µg/mL (≈ 0.452 µM) | 10 µg/mL (≈ 22.6 µM) | 10 µg/mL (≈ 22.6 µM) | 1 µg/mL (≈ 2.26 µM) | 10 µg/mL (≈ 22.6 µM) | 0.1 µg/mL (≈ 0.226 µM) | 0.1 µg/mL (≈ 0.226 µM) | 0.2 µg/mL (≈ 0.452 µM) | 5 µg/mL (≈ 11.3 µM) | 0.6 µg/mL (≈ 1.36 µM) | 0.6 µg/mL (≈ 1.36 µM) | 40 µg/mL (≈ 90.4 µM) | 40 µg/mL (≈ 90.4 µM) | MIC ([14]; 99F74, 24 h): 20 µg/mL (≈ 45.2 µM); MIC ([14]; 99F74, 48 h, read-out: MIC): 40 µg/mL (≈ 90.4 µM); MIC (Serratia RG 2 532; RG2532, 24 h): 10 µg/mL (≈ 22.6 µM); MIC (Serratia RG 2 532; RG2532, 48 h): 10 µg/mL (≈ 22.6 µM); MIC ([5]; Staphylococcus aureus, 54146, 48 h): 2 µg/mL (≈ 4.52 µM); MIC ([7]; 48 h): 20 µg/mL (≈ 45.2 µM); MIC ([8]; Klebsiella pneumoniae, 52145, 24 h, read-out: MIC): 3 µg/mL (≈ 6.78 µM); MIC ([8]; Klebsiella pneumoniae, 52145, 48 h): 5 µg/mL (≈ 11.3 µM); MIC ([11]; ATCC6, 48 h): 0.4 µg/mL (≈ 0.904 µM); MIC (Salmonella Typhimurium; 48 H): 5 µg/mL (≈ 11.3 µM) |
